What all share (type): cell-based
Experiment [1] relates to Calu-1. Kind of experiment: PROTAC activity at DDB1/CyclinD1 in human Calu-1 cells assessed as induction of cyclin D1 degradation at 40 nM incubated for 16 hrs relative to control.
Experiment [2] deals with Calu-1. Description: PROTAC activity at DDB1/CyclinD1 in human Calu-1 cells assessed as induction of cyclin D1 degradation at 400 nM incubated for 16 hrs relative to control.
The subject of experiment [3] is Calu-1. Description: PROTAC activity at DDB1/CDK4 in human Calu-1 cells assessed as induction of CDK4 degradation at 40 nM incubated for 16 hrs relative to control.
Experiment [4] has as its system Calu-1. Kind of experiment: PROTAC activity at DDB1/CDK4 in human Calu-1 cells assessed as induction of CDK4 degradation at 400 nM incubated for 16 hrs relative to control.

Regarding `CC(=O)c1c(C)c2cnc(Nc3ccc(N4CCN(CC(=O)NCCCCCCCNc5nc(C)ccc5C(=O)Nc5ccc(N(C)C)nn5)CC4)cn3)nc2n(C2CCCC2)c1=O`, the Activity in the experiment on Calu-1 [1] is over 80%; in the experiment on Calu-1 [2], over 80%; in the experiment with Calu-1 [3] it was under 80%; in the experiment on Calu-1 [4] it was over 80%.

`CNc1ccc(C(=O)Nc2ccc(N(C)C)nn2)c(NCCCCNC(=O)CCN2CCN(c3ccc(Nc4ncc5c(C)c(C(C)=O)c(=O)n(C6CCCC6)c5n4)nc3)CC2)n1`: the Activity in the experiment with Calu-1 [1] was over 80%; with Calu-1 [2], over 80%; in the experiment with Calu-1 [3], under 80%; in the experiment on Calu-1 [4], under 80%.

On to `CC(=O)c1c(C)c2cnc(Nc3ccc(N4CCN(CC(=O)NCCCCCNc5nc(C6CC6)ccc5C(=O)Nc5ccc(N(C)C)nn5)CC4)cn3)nc2n(C2CCCC2)c1=O`, for which the Activity in the experiment with Calu-1 [1], in the experiment with Calu-1 [2], in the experiment on Calu-1 [3] and with Calu-1 [4] was over 80% in each case.

In the case of `COc1ccc(NC(=O)c2ccc(C)nc2NCCCCCCCNC(=O)CN2CCN(c3ccc(Nc4ncc5c(C)c(C(C)=O)c(=O)n(C6CCCC6)c5n4)nc3)CC2)nn1`, the Activity with Calu-1 [1] is over 80%; in the experiment with Calu-1 [2], over 80%; in the experiment with Calu-1 [3], under 80%; in the experiment with Calu-1 [4] it was over 80%.

For the molecule `CNc1ccc(C(=O)Nc2ccc(N(C)C)nn2)c(NCCCCC(C)NC(=O)CN2CCN(c3ccc(Nc4ncc5c(C)c(C(C)=O)c(=O)n(C6CCCC6)c5n4)nc3)CC2)n1` (centres undefined), the Activity in the experiment on Calu-1 [1], in the experiment with Calu-1 [2], in the experiment with Calu-1 [3] and in the experiment with Calu-1 [4] was over 80% in each case.

On to `CC(=O)c1c(C)c2cnc(Nc3ccc(N4CCN(CC(=O)NCCCCCCCNc5nc(C)ccc5C(=O)Nc5ccc(C)c(C6CC6)n5)CC4)cn3)nc2n(C2CCCC2)c1=O`, for which the Activity in the experiment with Calu-1 [1] is over 80%; in the experiment on Calu-1 [2], over 80%; with Calu-1 [3], under 80%; in the experiment with Calu-1 [4], over 80%.
